Data from patent US8450281B2, “Non-immunosuppressive cyclosporin for treatment of Ullrich congenital muscular dystrophy” (Debiopharm S.A., priority 2007, dated 2013).

Columns and labels:
[1] = Initial phase I clinical studies, safety of oral doses; format: in vivo, human
Protocol: Initial phase I clinical studies were carried out to assess the safety of oral doses of [D-MeAla]^3-[EtVal]^4-CsA, and to determine the pharmacokinetic profile and safety profile of the drug substance. […] These side effects were not dose-related.

[2] = system: myoblast cultures from UCMD patients; test: Mitochondrial TMRM fluorescence (membrane potential) after oligomycin in myoblast cultures from UCMD patients; format: cell-based, human; details: muscle cell cultures from UCMD patients
Protocol: To assess whether the anti-apoptotic effects of collagen VI and CsA could be traced to mitochondria, mitochondrial function was studied in living muscle cell cultures. […] Addition of oligomycin was instead followed by mitochondrial depolarization in the cells from all UCMD patients. […] Mitochondrial membrane potential was assessed based on accumulation of tetramethylrhodamine methyl ester (TMRM). It is noted that oligomycin was expected to cause hyperpolarization in healthy, respiring cells in which the mitochondrial membrane potential is maintained by proton pumping by the respiratory chain and the proton electrochemical gradient is used to drive ATP synthesis.
Panels A and B of FIG. 1 show mitochondrial membrane potentials in myoblasts from UCMD patients 1 (A) and 4 (B) as a function of time. Mitochondrial membrane potential was measured based on accumulation of tetramethylrhodamine methyl ester (TMRM). […] The extent of cell and, consequently, mitochondrial loading with potentiometric probes is affected by the activity of the plasma membrane multidrug resistance pump which is inhibited by cyclosporin A. Treatment with cyclosporins may therefore cause an increased mitochondrial fluorescence that can be erroneously interpreted as an increase of mitochondrial membrane potential. […] Data were acquired and analyzed using Cell R software (Olympus). […] Apoptosis was assessed as described before.

[3] = system: myoblast cultures from UCMD patients; test: TUNEL incidence of apoptosis in myoblast cultures from UCMD patients; format: cell-based, human; details: myoblast cultures from UCMD patients 1-4
Protocol: Experiments were carried out to experimentally test the existence of a causal link between lack of collagen VI and apoptosis. Myoblast cultures were prepared from muscle biopsies of two unaffected controls and from patients 1, 2, 3 and 4 by enzymatic and mechanical treatment and plating in Dulbecco's modified Eagle's medium (DMEM) supplemented with 20% fetal calf serum, penicillin, streptomycin and amphotericin B (Sigma). To test for apoptosis, cells were fixed in 50% acetone-50% methanol and processed for TUNEL analysis using the Dead End Fluorescence TUNEL System (Promega). Visualization of all nuclei was performed by staining with Hoechst 33258. […] Demir et al. 2002. Giusti et al. 2005.
Panels A and B of FIG. 1 show mitochondrial membrane potentials in myoblasts from UCMD patients 1 (A) and 4 (B) as a function of time. Mitochondrial membrane potential was measured based on accumulation of tetramethylrhodamine methyl ester (TMRM). […] The extent of cell and, consequently, mitochondrial loading with potentiometric probes is affected by the activity of the plasma membrane multidrug resistance pump which is inhibited by cyclosporin A. Treatment with cyclosporins may therefore cause an increased mitochondrial fluorescence that can be erroneously interpreted as an increase of mitochondrial membrane potential. […] Data were acquired and analyzed using Cell R software (Olympus). […]

[4] = system: muscle cell cultures from UCMD patients and healthy donors; test: Electron microscopy of mitochondria in muscle cell cultures; format: cell-based, human; details: for percentage of cells with swollen mitochondria: oligomycin treatment
Text: The muscle cell cultures established from healthy donors and from patients 1, 2 and 3 were studied by electron microscopy.

[5] = system: UCMD and BM patients; test: Preliminary clinical trial, TMRM assay on muscle biopsies of UCMD and BM patients; format: in vivo, human; details: daily oral dose of 5 mg/kg for thirty days
Protocol: Five patients were enroIled, of which four suffered from UCMD and one of BM. The patients had mutation in their COL6A1, COL6A2 or COL6A3 genes, respectively. The trial was designed to test whether treatment with CsA was effective in reducing mitochondrial dysfunction as assessed by the ability of oligomycin to cause mitochondrial depolarization in muscle fibers. Depolarization was detected as a change in TMRM fluorescence. Patients were treated with a daily oral dose of 5 mg/kg CsA for a period of thirty days. Muscle biopsies were taken immediately before and after the treatment period and were processed for TMRM assay.

Molecule: C/C=C/C[C@@H](C)[C@@H](O)[C@H]1C(=O)N[C@@H](CC)C(=O)N(C)[C@H](C)C(=O)N(CC)[C@@H](C(C)C)C(=O)N[C@@H](C(C)C)C(=O)N(C)[C@@H](CC(C)C)C(=O)N[C@@H](C)C(=O)N[C@H](C)C(=O)N(C)[C@@H](CC(C)C)C(=O)N(C)[C@@H](CC(C)C)C(=O)N(C)[C@@H](C(C)C)C(=O)N1C [[D-MeAla]^3-[EtVal]^4-CsA]
- tolerability ([1]; oral doses of 50 to 1600 mg in a micro-emulsion in water): well tolerated
- side effects ([1]; oral doses of 50 to 1600 mg, not dose-related): Mild and short-lived side effects were observed including nausea, vomiting, abdominal pain, and mild headaches

Molecule: CC(=O)OCOC(=O)CN(CC(=O)OCOC(C)=O)c1ccccc1OCCOc1ccccc1N(CC(=O)OCOC(C)=O)CC(=O)OCOC(C)=O [BAPTA-AM]
- response to oligomycin (mitochondrial depolarization, TMRM) [2]: fully normalized

Molecule: cyclosporin A
- occurrence of apoptosis (TUNEL) in the patient samples [3]: fully normalized the occurrence of apoptosis
- response to oligomycin (mitochondrial depolarization, TMRM) [2]: fully normalized
- number of cells with swollen mitochondria ([4]; UCMD cells, no oligomycin): decreased the number of cells with swoIlen mitochondria to the values observed in cultures from healthy donors
- percentage of cells bearing swollen mitochondria after oligomycin ([4]; oligomycin-treated cultures plus cyclosporin A): restored to values similar to basal
- mitochondrial dysfunction as assayed by oligomycin-induced depolarization [5]: capable of substantially reducing mitochondrial dysfunction
- muscle cells depolarizing on oligomycin, subsequent to treatment ([5]; average of five patients, 90% prior to treatment): 37%

Molecule: CC[C@H]1/C=C/C=C/C[C@@H](C)[C@H](O)[C@@](C)(O)C(=O)[C@@H](C)[C@H](O)[C@@H](C)C(=O)[C@@H](C)[C@H](O)[C@@H](C)/C=C/C(=O)O[C@@H]2[C@H](C)[C@H](CC1)O[C@]1(CC[C@H](C)[C@H](C[C@@H](C)O)O1)[C@H]2C [oligomycin]
- percentage of cells with swollen mitochondria ([4]; control (healthy donor) cultures): 4%
- percentage of cells with swollen mitochondria ([4]; cultures from UCMD patients): over 40%
